According to ChEMBL document CHEMBL5120865, “Exploration of 6-methyl-7-(Hetero)Aryl-7-Deazapurine ribonucleosides as antileishmanial agents” (Eur J Med Chem, 2022):
pEC50: −log10 of the molar value.

Columns and labels:
Leishmania infantum [1] = assay: Antileishmanial activity against intracellular Leishmania infantum MHOM/MA(BE)/67 amastigotes infected in golden hamster assessed as reduction of amastigote burdens in spleen at 50 mg/kg, po SID for 10 days by geimsa staining based microscopic analysis; type: functional; parameters: scale not given: the % may be the effect or the level left; conditions: time 10 day
Cytochrome P450 [2] = biological target: T1, Cytochrome P450 (Homo sapiens, UniProt P04798+P05177+P05181+P08684+P10632+P10635+P11509+P11712+P13584+P20813+P20815+P20853+P24462+P24903+P33260+P33261+P51589+P78329+P98187+Q02928+Q08477+Q16678+Q16696+Q5TCH4+Q6VVX0+Q7Z449+Q8TAV3+Q96SQ9+Q9HB55); assay: Metabolic stability in human liver microsomes S9 fraction assessed as CYP450-mediated metabolism by measuring parent compound remaining measured after 60 mins in presence of NADPH; type: ADME, subcellular; conditions: read-out: Stability
[3] = Metabolic stability in golden hamster liver microsomes S9 fraction assessed as UGT-mediated metabolism by measuring parent compound remaining measured after 30 mins in presence of NADPH; type: ADME, subcellular, Mesocricetus auratus; conditions: read-out: Stability
Cytochrome P450 [4] = biological target: T1, Cytochrome P450; assay: Metabolic stability in human liver microsomes S9 fraction assessed as CYP450-mediated metabolism by measuring parent compound remaining measured after 15 mins in presence of NADPH; type: ADME, subcellular; conditions: read-out: Stability
[5] = Metabolic stability in mouse liver microsomes S9 fraction assessed as UGT-mediated metabolism by measuring parent compound remaining measured after 30 mins in presence of NADPH; type: ADME, subcellular; conditions: read-out: Stability
[6] = Volume of distribution in golden hamster infected with Leishmania infantum MHOM/MA(BE)/67 amastigotes at 50 mg/kg, po SID and measured after 24 hrs by LC-MS/MS analysis; type: ADME, organism-based, Mesocricetus auratus; conditions: in vivo
[7] = Clearance in golden hamster infected with Leishmania infantum MHOM/MA(BE)/67 amastigotes at 50 mg/kg, po SID and measured after 24 hrs by LC-MS/MS analysis; type: ADME, organism-based, Mesocricetus auratus; conditions: in vivo
Cytochrome P450 [8] = biological target: T1, Cytochrome P450; assay: Metabolic stability in human liver microsomes S9 fraction assessed as CYP450-mediated metabolism by measuring parent compound remaining measured after 30 mins in presence of NADPH; type: ADME, subcellular; conditions: read-out: Stability
[9] = Metabolic stability in mouse liver microsomes S9 fraction assessed as CYP450-mediated metabolism by measuring parent compound remaining measured after 60 mins in presence of NADPH; type: ADME, subcellular; conditions: read-out: Stability
[10] = Selectivity index, ratio of CC50 for cytotoxicity against human MRC5 cells to EC50 for Trypanosoma cruzi Tulahuen CL2 amastigotes expressing beta galactosidase infected in human MRC5 cells; type: toxicity, cell-based; conditions: read-out: Ratio CC50/EC50
[11] = Selectivity index, ratio of CC50 for Cytotoxicity against Swiss mouse peritoneal macrophages to EC50 for intracellular Leishmania infantum MHOM/MA(BE)/67 ITMAP263 amastigotes infected in Swiss mouse peritoneal macrophages; type: toxicity, cell-based; conditions: read-out: Ratio CC50/EC50
Leishmania infantum [12] = assay: Antileishmanial activity against sodium stibogluconate and potassium antimonyl tartrate resistant intracellular Leishmania infantum MHOM/FR/96/LEM3323-CI4 promastigotes infected in Swiss mouse peritoneal macrophages assessed as inhibition of parasite growth measured after 96 hrs by microscopic analysis; type: functional, organism-based; conditions: MHOM/FR/96/LEM3323-CI4, Peritoneal macrophage
[13] = Tmax in golden hamster infected with Leishmania infantum MHOM/MA(BE)/67 amastigotes at 50 mg/kg, po SID and measured after 10 days by LC-MS/MS analysis; type: ADME, organism-based, Mesocricetus auratus; conditions: in vivo, time 10 day
[14] = Metabolic stability in mouse liver microsomes S9 fraction assessed as UGT-mediated metabolism by measuring parent compound remaining measured after 15 mins in presence of NADPH; type: ADME, subcellular; conditions: read-out: Stability
[15] = Metabolic stability in golden hamster liver microsomes S9 fraction assessed as CYP450-mediated metabolism by measuring parent compound remaining measured after 60 mins in presence of NADPH; type: ADME, subcellular, Mesocricetus auratus; conditions: read-out: Stability

Molecule Cc1ncnc2c1c(-c1cc(Cl)ccn1)cn2[C@@H]1O[C@H](CO)[C@@H](O)[C@H]1O has an Activity (Leishmania infantum [1]) of -1.8%, a remaining at 1 h (Cytochrome P450 [2]) of 75% and a remaining at 0.5 h [3] of 92%. The remaining at 0.25 h (Cytochrome P450 [4]) was 92%, the remaining at 0.5 h [5] was 102% and the Vd [6] was 13 L/kg. For the same molecule, the CL/F [7] was 56.6 mL/min/kg, the remaining at 0.5 h (Cytochrome P450 [8]) was 86% and the remaining at 1 h [9] was 94%. For the same molecule, the selectivity ratio [10] was over 77, the selectivity ratio [11] was over 94 and the pEC50 (Leishmania infantum [12]) was 5.66. The Tmax [13] was 30 min, the remaining at 0.25 h [14] was 103% and the remaining at 1 h [15] was 87%.
